Source: patent publication US9657057B2, “Dipeptide and tripeptide epoxy ketone protease inhibitors” (Onyx Therapeutics, Inc., priority 2013, dated 2017)
pIC50: −log10 of the molar value. ≈ marks a conversion by molar mass, not a printed value.

Tests used:
Solubility pH 7 = format: physicochemical; details: pH 7, aqueous buffer
β5 = biological target: T1, β5 (Homo sapiens, UniProt P20618+P28074); test: ProCISE proteasome subunit assay, β5; format: biochemical; details: for pIC50: MOLT4 lysate Hu 1 h
T1 construct: endogenous in cells; host or cells: MOLT-4
Protocol: (§1) This assay was used to assess the inhibitory activity against each of LMP2, LMP7, MECL1, β1, β2, and β5. Briefly, test compounds were serially diluted in DMSO at 100× concentration, then diluted to 10× in aqueous hypotonic lysis buffer. Lysate from the human acute lymphoblastic leukemia cell line, MOLT-4, was treated for 1 hour at 25° C. with compound at a final 1× concentration. […] Following this, lysate was denatured in guanidine hydrochloride, and subunits bound to probe were isolated with streptavidin-conjugated sepharose beads. Individual subunits were probed with subunit-specific primary antibodies, followed by HRP-conjugated secondary antibodies. A chemiluminescent substrate was used to generate signal associated with HRP binding, which was detected on a plate reader. Luminescent signal was normalized to protein content, then, percent activity calculated relative to DMSO-treated controls to generate IC50 curves.

LMP7 = biological target: T2, LMP7 (Homo sapiens, UniProt P20618+P28062); test: ProCISE proteasome subunit assay, LMP7; format: biochemical; details: for pIC50: MOLT4 lysate Hu 1 h
T2 construct: endogenous in cells; host or cells: MOLT-4
Protocol: as §1

Row | solubility (Solubility pH 7) [µg/mL] | pIC50 (β5) | pIC50 (LMP7) | Compound | also measured
1 | 735 (≈ 1480 µM) |  |  | COc1ccc(C[C@H](NC(=O)[C@H](C)NC(C)=O)C(=O)N[C@@H](Cc2ccccc2)C(=O)[C@@]2(C)CO2)cc1 [Compound C-2005] | 
2 | 163 (≈ 318 µM) |  |  | COC(=O)N[C@@H](C)C(=O)N[C@@H](Cc1ccc(OC)cc1)C(=O)N[C@@H](Cc1ccccc1)C(=O)[C@@]1(C)CO1 [Compound C-2009, Methyl ((S)-1-(((S)-3-(4-methoxyphenyl)-1-(((S)-1-((R)-2-methyloxiran-2-yl)-1-oxo-3-phenylpropan-2-yl)amino)-1-oxopropan-2-yl)amino)-1-oxopropan-2-yl)carbamate] | 
3 | 0.8 (≈ 1.31 µM) |  |  | COc1ccc(C[C@H](NC(=O)[C@H](C)NC(=O)C2=C(C)c3ccccc3C2)C(=O)N[C@@H](Cc2ccccc2)C(=O)[C@@]2(C)CO2)cc1 [Compound C-2049, N—((S)-1-(((S)-3-(4-methoxyphenyl)-1-(((S)-1-((R)-2-methyloxiran-2-yl)-1-oxo-3-phenylpropan-2-yl)amino)-1-oxopropan-2-yl)amino)-1-oxopropan-2-yl)-3-methyl-1H-indene-2-carboxamide] | IC50 (β5; ProCISE beta5 MOLT4 lysate Hu 1 h CONT: IC50 (nM)): 57.6 nM; IC50 (LMP7; ProCISE LMP7 MOLT4 lysate Hu 1 h CONT: IC50 (nM)): 45.8 nM
4 | 45.4 (≈ 82.9 µM) | 5.37 | 6.27 | COc1ccc(C[C@H](NC(=O)[C@@H](C)NC(=O)C2=CCCC2)C(=O)N[C@@H](Cc2ccccc2)C(=O)[C@@]2(C)CO2)cc1 [Compound C-2058, N—((R)-1-(((S)-3-(4-methoxyphenyl)-1-(((S)-1-((R)-2-methyloxiran-2-yl)-1-oxo-3-phenylpropan-2-yl)amino)-1-oxopropan-2-yl)amino)-1-oxopropan-2-yl)cyclopent-1-enecarboxamide] | 
5 | 26.3 (≈ 44.6 µM) |  |  | COc1ccc(C[C@H](NC(=O)[C@@H](C)NC(=O)c2ccc3[nH]ncc3c2)C(=O)N[C@@H](CC2CCCC2)C(=O)[C@@]2(C)CO2)cc1 [Compound C-2061, N—((R)-1-(((S)-1-(((S)-3-cyclopentyl-1-((R)-2-methyloxiran-2-yl)-1-oxopropan-2-yl)amino)-3-(4-methoxyphenyl)-1-oxopropan-2-yl)amino)-1-oxopropan-2-yl)-1H-indazole-5-carboxamide] | 
6 | 56 (≈ 95 µM) |  |  | COc1ccc(C[C@H](NC(=O)[C@@H](C)NC(=O)c2ccc3[nH]cnc3c2)C(=O)N[C@@H](CC2CCCC2)C(=O)[C@@]2(C)CO2)cc1 [Compound C-2062, N—((R)-1-(((S)-1-(((S)-3-cyclopentyl-1-((R)-2-methyloxiran-2-yl)-1-oxopropan-2-yl)amino)-3-(4-methoxyphenyl)-1-oxopropan-2-yl)amino)-1-oxopropan-2-yl)-1H-benzo[d]imidazole-5-carboxamide] | 
7 | 21.4 (≈ 36.3 µM) |  |  | COc1ccc(C[C@H](NC(=O)[C@@H](C)NC(=O)c2ccc3cn[nH]c3c2)C(=O)N[C@@H](CC2CCCC2)C(=O)[C@@]2(C)CO2)cc1 [Compound C-2063, N—((R)-1-(((S)-1-(((S)-3-cyclopentyl-1-((R)-2-methyloxiran-2-yl)-1-oxopropan-2-yl)amino)-3-(4-methoxyphenyl)-1-oxopropan-2-yl)amino)-1-oxopropan-2-yl)-1H-indazole-6-carboxamide] | 
8 | 144 (≈ 242 µM) | 5.21 | 6.86 | COc1ccc(C[C@H](NC(=O)[C@@H](C)NC(=O)[C@@H]2CCc3[nH]ncc3C2)C(=O)N[C@@H](CC2CCCC2)C(=O)[C@@]2(C)CO2)cc1 [Compound C-2064, (R)—N—((R)-1-(((S)-1-(((S)-3-cyclopentyl-1-((R)-2-methyloxiran-2-yl)-1-oxopropan-2-yl)amino)-3-(4-methoxyphenyl)-1-oxopropan-2-yl)amino)-1-oxopropan-2-yl)-4,5,6,7-tetrahydro-1H-indazole-5-carboxamide] | 
9 | 43.6 (≈ 74.7 µM) |  |  | COc1ccc(C[C@H](NC(=O)[C@H](C)NC(=O)Cc2cnc(N)s2)C(=O)N[C@@H](CC2=CCCC2)C(=O)[C@@]2(C)CO2)cc1 [Compound C-2066, (S)-2-((S)-2-(2-(2-aminothiazol-5-yl)acetamido)propanamido)-N—((S)-3-(cyclopent-1-en-1-yl)-1-((R)-2-methyloxiran-2-yl)-1-oxopropan-2-yl)-3-(4-methoxyphenyl)propanamide] | 
10 | 61.6 (≈ 101 µM) |  |  | COc1ccc(C[C@H](NC(=O)[C@H](C)NC(=O)Cc2cnc(N(C)C)s2)C(=O)N[C@@H](CC2=CCCC2)C(=O)[C@@]2(C)CO2)cc1 [Compound C-2067, (S)—N—((S)-3-(cyclopent-1-en-1-yl)-1-((R)-2-methyloxiran-2-yl)-1-oxopropan-2-yl)-2-((S)-2-(2-(2-(dimethylamino)thiazol-5-yl)acetamido)propanamido)-3-(4-methoxyphenyl)propanamide] | 
11 | 54.6 (≈ 87.5 µM) |  |  | COc1ccc(C[C@H](NC(=O)[C@H](C)NC(=O)Cc2cnc(N3CCC3)s2)C(=O)N[C@@H](CC2=CCCC2)C(=O)[C@@]2(C)CO2)cc1 [Compound C-2068, (S)-2-((S)-2-(2-(2-(azetidin-1-yl)thiazol-5-yl)acetamido)propanamido)-N—((S)-3-(cyclopent-1-en-1-yl)-1-((R)-2-methyloxiran-2-yl)-1-oxopropan-2-yl)-3-(4-methoxyphenyl)propanamide] | 
12 | 26.6 (≈ 41.7 µM) |  |  | COc1ccc(C[C@H](NC(=O)[C@H](C)NC(=O)Cc2cnc(N3CCCC3)s2)C(=O)N[C@@H](CC2=CCCC2)C(=O)[C@@]2(C)CO2)cc1 [Compound C-2069, (S)—N—((S)-3-(cyclopent-1-en-1-yl)-1-((R)-2-methyloxiran-2-yl)-1-oxopropan-2-yl)-3-(4-methoxyphenyl)-2-((S)-2-(2-(2-(pyrrolidin-1-yl)thiazol-5-yl)acetamido)propanamido)propanamide] | 
13 | 1020 (≈ 1800 µM) |  |  | COc1ccc(C[C@H](NC(=O)[C@H](C)NC(=O)Cc2cnc(N)o2)C(=O)N[C@@H](CC2=CCCC2)C(=O)[C@@]2(C)CO2)cc1 [Compound C-2070, (S)-2-((S)-2-(2-(2-aminooxazol-5-yl)acetamido)propanamido)-N—((S)-3-(cyclopent-1-en-1-yl)-1-((R)-2-methyloxiran-2-yl)-1-oxopropan-2-yl)-3-(4-methoxyphenyl)propanamide] | 

The remaining lines, values behind:

Row | Compound | solubility (Solubility pH 7) [µg/mL] | pIC50 (β5) | pIC50 (LMP7) | also measured
14 | CC1=C(C(=O)N[C@H](C)C(=O)N[C@@H](Cc2c[nH]c3ccccc23)C(=O)N[C@@H](Cc2ccccc2)C(=O)[C@@]2(C)CO2)Cc2ccccc21 [Compound C-2003] | 0.7 (≈ 1.13 µM) |  |  | 
15 | CC1=C(C(=O)N[C@@H](C)C(=O)N[C@@H](Cc2c[nH]c3ccccc23)C(=O)N[C@@H](Cc2ccccc2)C(=O)[C@@]2(C)CO2)Cc2ccccc21 [Compound C-2004] | 1.9 (≈ 3.07 µM) |  |  | 
16 | COc1ccc(C[C@H](NC(=O)[C@@H](CC(=O)OC(C)(C)C)NC(=O)OCc2ccccc2)C(=O)N[C@@H](Cc2ccccc2)C(=O)[C@@]2(C)CO2)cc1 [Compound C-2016, (R)-tert-Butyl 3-(((benzyloxy)carbonyl)amino)-4-(((S)-3-(4-methoxyphenyl)-1-(((S)-1-((R)-2-methyloxiran-2-yl)-1-oxo-3-phenylpropan-2-yl)amino)-1-oxopropan-2-yl)amino)-4-oxobutanoate] |  | 6.55 | 7.16 | 
17 | COc1ccc(C[C@H](NC(=O)[C@@H](CC(=O)O)NC(=O)OCc2ccccc2)C(=O)N[C@@H](Cc2ccccc2)C(=O)[C@@]2(C)CO2)cc1 [Compound C-2017, (R)-3-(((Benzyloxy)carbonyl)amino)-4-(((S)-3-(4-methoxyphenyl)-1-(((S)-1-((R)-2-methyloxiran-2-yl)-1-oxo-3-phenylpropan-2-yl)amino)-1-oxopropan-2-yl)amino)-4-oxobutanoic acid] |  | 6.89 | 7.43 | 
18 | CC1=C(C(=O)N[C@H](C)C(=O)N[C@@H](Cc2c[nH]c3ccccc23)C(=O)N[C@@H](CC2CCCC2)C(=O)[C@@]2(C)CO2)Cc2ccccc21 [Compound C-2047, N—((R)-1-(((S)-1-(((S)-3-cyclopentyl-1-((R)-2-methyloxiran-2-yl)-1-oxopropan-2-yl)amino)-3-(1H-indol-3-yl)-1-oxopropan-2-yl)amino)-1-oxopropan-2-yl)-3-methyl-1H-indene-2-carboxamide] | 0.3 (≈ 0.491 µM) | 5.96 | 7.16 | 
19 | COc1ccc(C[C@H](NC(=O)[C@@H](C)NC(=O)CC(C)(C)O)C(=O)N[C@@H](Cc2ccc(C)cc2)C(=O)[C@H]2CO2)cc1 [Compound C-2053, 3-hydroxy-N—((R)-1-(((S)-3-(4-methoxyphenyl)-1-(((S)-1-((R)-oxiran-2-yl)-1-oxo-3-(p-tolyl)propan-2-yl)amino)-1-oxopropan-2-yl)amino)-1-oxopropan-2-yl)-3-methylbutanamide] | 1260 (≈ 2270 µM) | 8.28 | 8.74 | 
20 | C[C@@H](NC(=O)CC(C)(C)O)C(=O)N[C@@H](Cc1ccc(S(C)(=O)=O)cc1)C(=O)N[C@@H](CC1CCCC1)C(=O)[C@H]1CO1 [Compound C-2055, N—((R)-1-(((S)-1-(((S)-3-cyclopentyl-1-((R)-oxiran-2-yl)-1-oxopropan-2-yl)amino)-3-(4-(methylsulfonyl)phenyl)-1-oxopropan-2-yl)amino)-1-oxopropan-2-yl)-3-hydroxy-3-methylbutanamide] | 1970 (≈ 3400 µM) | 6.45 | 7.75 | 
21 | COc1ccc(C[C@H](NC(=O)[C@@]2(CO)CCCN2)C(=O)N[C@@H](Cc2ccccc2)C(=O)[C@@]2(C)CO2)cc1 [Compound C-3005] | 1920 (≈ 3760 µM) |  |  | 
22 | COc1ccc(C[C@H](NC(=O)C(C)(C)N)C(=O)N[C@@H](Cc2ccccc2)C(=O)[C@@]2(C)CO2)cc1 [Compound C-3006, 2-Amino-N—((S)-3-(4-methoxyphenyl)-1-(((S)-1-((R)-2-methyloxiran-2-yl)-1-oxo-3-phenylpropan-2-yl)amino)-1-oxopropan-2-yl)-2-methylpropanamide] | 385 (≈ 823 µM) |  |  | 
